US10894036B2, “Use of marizomib for the treatment of central nervous system (CNS) cancers” (Celgene International II Sàrl, priority 2016, dated 2021)
Entries after “also recorded” stand apart in the source; their conditions may differ.

Key:
[1] = 10 mg/kg dose, Gordon et al., 2001; cited from earlier work
[2] = system: human glioblastoma (GBM) cell lines; experiment: Migration and matrix invasion of GBM cell lines; type: cell-based; conditions: either of two GBM lines
Text: In vitro studies of multiple glioma cell lines were highly sensitive to MRZ. […] Treatment with MRZ decreased matrix invasion by either of two GBM lines by approximately 90%, a highly significant effect.

[3] = Phase 1b MRZ + TMZ (+RT) in newly diagnosed G4 MG: adverse events, DLT; type: in vivo, human
Description: This is a Phase 1b, open-label, 3+3, dose-escalation followed by dose-expansion study in patients with newly diagnosed G4 MG who have not previously received any local or systemic therapy for their G4 MG. The study will examine the effect of the addition of MRZ to standard of care treatment utilizing two study arms: Concomitant Treatment in which MRZ will be combined with TMZ+RT and Adjuvant Treatment in which MRZ will be combined with TMZ. The study will be conducted in two Stages. In Stage 1 (Dose-Escalation): 3 to 6 evaluable patients per MRZ dose cohort will be enrolled in each study arm. […] A total of approximately 48 patients will be enrolled in Stages 1 and 2 combined. Patients may not be enrolled in more than 1 MRZ dose cohort per arm.
Concomitant Treatment consists of a 6 week (42 day) treatment period, followed by a 4 (−1) week break from treatments. All patients will receive intravenous (IV) MRZ infusion on Days 1, 8, 15, 29, and 36 as a 10 minute infusion. IV hydration will be given prior to the infusion. Focal RT will be administered once daily, 5 days/week, for 30 doses over 6 weeks to a total dose of 60 Gy, starting on Day 1. TMZ will be administered once daily, 7 days/week, for 6 weeks, starting on Day 1, at a dose of 75 mg/m^2. Patients who complete Concomitant Treatment may continue on to Adjuvant Treatment.
All patients will receive IV MRZ infusion on Days 1, 8, and 15 as a 10 minute infusion, in 28-day cycles. IV hydration will be given prior to the infusion. TMZ will be administered daily for 5 consecutive days, starting on Day 1 of Cycle 1 (C1D1), at a dose of 150 mg/m^2. If tolerated in Cycle 1, the TMZ dose will be increased on Day 1 of Cycle 2 (C2D1) to a dose of 200 mg/m^2.

[4] = Compassionate use of marizomib in CNS-myeloma patients: safety; type: in vivo, human
Description: This example sets forth seven case studies in which CNS-MM (i.e., multiple myeloma with CNS involvement) was treated using marizomib alone or in combination with other agents.
As set forth herein, 7 patients were treated under single patient compassionate use protocols with MRZ for CNS-myeloma. Marizomib was well-tolerated. […] One patient has been on the study for 13 months with complete resolution of both […].

clinical = conditions: human
Description: Blood samples will be taken for peak and trough measurements, pre-dose and immediately prior to (end of infusion) EOI, on Cycle 1 Day 1. On Cycle 1 Day 15 full PK sampling will be done: pre-dose, immediately prior to EOI and then 2, 5, 15, 30, 45, 60, 90 and 120 minutes post infusion. The following PK parameters will be estimated by non-compartmental analysis:
Non-compartmental analyses will be performed. […] Blood concentrations and computed PK parameters for MRZ will be listed and summarized by cohort (mean, geometric mean, standard deviation, coefficient of variation, minimum, maximum and number of observations).
For MRZ samples will be obtained before treatment and just prior to end of infusion on Cycle 1 Day 1. On Cycle 1 Day 15, MRZ blood samples will be obtained before treatment, just prior to end of infusion, and 2, 5, 15, 30, 45, 60, 90, and 120 minutes after the infusion. Every effort should be made to collect samples at the prescribed times, but deviations up to 10% of the time point are allowed. […] After blood collection, neutralizing solution must be added.

[5] = N = 20, related to the labelled drug
[6] = N = 20, related to the labelled drug (MRZ+TMZ = related to both)
[7] = patient 301-A202, action taken None
[8] = patient 301-C202, action taken None
[9] = whole blood, intravenous, 0.7 mg/m2
[10] = whole blood, intravenous, 0.8 mg/m2

bevacizumab [reference compound]
Cmax of bevacizumab at Day 0 [1]: 284 µg/mL

C[C@@]12OC(=O)[C@]1([C@@H](O)[C@@H]1C=CCCC1)NC(=O)[C@@H]2CCCl [marizomib]
decrease of matrix invasion [2]: approximately 90% | Discontinued, reason Adverse Event ([3]; N = 20): 1 (5.0%) | Dose reduction, reason Adverse Event ([3]; N = 20): 1 (5.0%) | Number of Patients with drug Discontinued ([3]; N = 20): 1 (5.0%) | Number of Patients with ≥1 Dose Reduction ([3]; N = 20): 1 (5.0%) | patients with MRZ-related serious adverse events ([3]; N = 20): One | patients with fatigue Grade ≥3 ([3]; N = 20): Three | Abdominal pain, Grade ≥3 TEAE, drug related [3, 5]: 0 (0.0%) | Confusional state, treatment-related TEAE, number of patients [3, 5]: 3 | Confusional state, treatment-related TEAE, percent of patients [3, 5]: (15.0%) | Constipation, treatment-related TEAE, number of patients [3, 5]: 1 | Constipation, treatment-related TEAE, percent of patients [3, 5]: (5.0%) | Decreased appetite, treatment-related TEAE, number of patients [3, 5]: 4 | Decreased appetite, treatment-related TEAE, percent of patients [3, 5]: (20.0%) | Dehydration, Grade ≥3 TEAE, drug related [3, 5]: 1 (5.0%) | Diarrhoea, treatment-related TEAE, number of patients [3, 5]: 2 | Diarrhoea, treatment-related TEAE, percent of patients [3, 5]: (10.0%) | Dizziness, treatment-related TEAE, number of patients [3, 5]: 4 | Dizziness, treatment-related TEAE, percent of patients [3, 5]: (20.0%) | Hallucination, Grade ≥3 TEAE, drug related [3, 5]: 1 (5.0%) | Hallucination, treatment-related TEAE, number of patients [3, 5]: 5 | Hallucination, treatment-related TEAE, percent of patients [3, 5]: (25.0%) | Headache, Grade ≥3 TEAE, drug related [3, 5]: 0 (0.0%) | Headache, treatment-related TEAE, number of patients [3, 5]: 3 | Headache, treatment-related TEAE, percent of patients [3, 5]: (15.0%) | Insomnia, Grade ≥3 TEAE, drug related [3, 5]: 0 (0.0%) | Muscular weakness, treatment-related TEAE, number of patients [3, 5]: 3 | Muscular weakness, treatment-related TEAE, percent of patients [3, 5]: (15.0%) | Musculoskeletal pain, Grade ≥3 TEAE, drug related [3, 5]: 0 (0.0%) | Nausea, treatment-related TEAE, number of patients [3, 5]: 9 | Nausea, treatment-related TEAE, percent of patients [3, 5]: (45.0%) | Ovarian cyst, Grade ≥3 TEAE, drug related [3, 5]: 0 (0.0%) | Pelvic infection, Grade ≥3 TEAE, drug related [3, 5]: 0 (0.0%) | Platelet count decreased, Grade ≥3 TEAE, drug related [3, 5]: 1 (5.0%) | Platelet count decreased, treatment-related TEAE, number of patients [3, 5]: 2 | Platelet count decreased, treatment-related TEAE, percent of patients [3, 5]: (10.0%) | Rash maculo-papular, treatment-related TEAE, number of patients [3, 5]: 1 | Rash maculo-papular, treatment-related TEAE, percent of patients [3, 5]: (5.0%) | Vomiting, Grade ≥3 TEAE, drug related [3, 5]: 1 (5.0%) | Vomiting, treatment-related TEAE, number of patients [3, 5]: 5 | Vomiting, treatment-related TEAE, percent of patients [3, 5]: (25.0%) | Fatigue, Grade ≥3 TEAE, drug related [3, 6]: 3 (15.0%) | Fatigue, treatment-related TEAE, number of patients [3, 6]: 13 | Fatigue, treatment-related TEAE, percent of patients [3, 6]: (65.0%) | Grade 2 SAEs (nausea, confusional state), MRZ-related ([3]; interim analysis, 20 patients): two | Grade 3 SAEs (fatigue, hallucination, vomiting), MRZ-related ([3]; interim analysis, 20 patients): three | tolerability ([3]; newly diagnosed G4 MG): well tolerated | SAE Nephrolithiasis, relationship to drug ([3]; patient 104-C302, action taken None): Not Suspected/ | SAE Confusional state, relationship to drug [3, 7]: Suspected/ | SAE Dehydration, relationship to drug [3, 7]: Not Suspected/ | SAE Fatigue, relationship to drug [3, 7]: Suspected/ | SAE Hallucination, relationship to drug [3, 7]: Suspected/ | SAE Nausea, relationship to drug [3, 7]: Suspected/ | SAE Vomiting, relationship to drug [3, 7]: Suspected/ | SAE Ovarian cyst, relationship to drug ([3]; patient 301-C202, action taken Dose Delayed): Not Suspected/ | SAE Convulsion, relationship to drug [3, 8]: Not Suspected/ | SAE Pelvic infection, relationship to drug [3, 8]: Not Suspected/ | CNS adverse events ([4]; 7 CNS-MM patients): no CNS adverse events | tolerability ([4]; 7 CNS-MM patients): well-tolerated | CNS adverse events ([4]; 7 CNS-MM patients, listed as Marizomib): No CNS-adverse events | Safety ([4]; Case 1): No adverse events were reported | Safety ([4]; Case 1, listed as MRZ): MRZ was well tolerated | Safety ([4]; Case 2): No adverse events or serious adverse events were observed | Safety ([4]; Case 2, listed as MRZ): No concerning AEs | Safety ([4]; Case 3): grade 1 adverse event | Safety ([4]; Case 3, listed as MRZ): Grade 1 shortness of | Safety ([4]; Case 4): well-tolerated with no adverse events reported | Safety ([4]; Case 4, listed as MRZ): Tolerated treatment | Safety ([4]; Case 5): serious adverse event | Safety ([4]; Case 5, listed as MRZ): AE due to PD, | Safety ([4]; Case 6): grade 2 adverse event | Safety ([4]; Case 6, listed as MRZ): Overall, no safety | Safety ([4]; Case 7, listed as MRZ): No adverse events or safety concerns were noted; also recorded: No AEs or safety | Cmax (clinical; blood, iv, 0.7 mg/m2): 0.0649 ± 0.00173 µg/mL | Cmax (clinical; blood, iv, 0.8 mg/m2): 0.0265 ± 0.00792 µg/mL | Tmax (clinical; [9]): 11.3 min | half-life (clinical; [9]): 32 min | AUC(0-t) (clinical; [10]): 4.05 ng·h/mL | Cmax (clinical; [10]): 0.026 ± 0.008 µg/mL | Tmax (clinical; [10]): 0 min | half-life (clinical; [10]): 7.6 ± 0.9 min | Tmax (clinical; whole blood, intravenous, […]2): 4 min | half-life (clinical; whole blood, intravenous, […]2): 8.8 ± 0.8 min | AUC(0-t) (clinical; whole blood, iv, 0.7 mg/m2): 3.22 ng·h/mL | Tmax (clinical; whole blood, iv, 0.7 mg/m2): 21.3 min | Vd (clinical; whole blood, iv, 0.7 mg/m2): 48.3 ± 16.1 L | half-life (clinical; whole blood, iv, 0.7 mg/m2): 16 ± 8.08 min | AUC(0-t) (clinical; whole blood, iv, 0.8 mg/m2): 6.53 ng·h/mL | Tmax (clinical; whole blood, iv, 0.8 mg/m2): 8 min | half-life (clinical; whole blood, iv, 0.8 mg/m2): 7.27 ± 0.423 min | Tmax (clinical; whole blood, iv, […]2): 15.5 min | Vd (clinical; whole blood, iv, […]2): 54.4 ± 10.6 L | half-life (clinical; whole blood, iv, […]2): 8.2 ± 0.8 min
